Measured values published in patent publication US9643999B2 (Bristol-Myers Squibb Company, priority 2012, dated 2017).

Columns and labels:
HCV genotype 1b replicon = experiment: HCV replicon luciferase reporter assay, genotype 1b (LE_1b); type: cell-based; settings: Hepatitis C virus, 72 h; HUH-7 cells, genotype 1b (Con1) replicon, 3 days incubation, Renilla luciferase; read-out: LE_1b (EC50, range)
Text: An HCV replicon whole cell system was established as described by Lohmann V, Korner F, Koch J, Herian U, Theilmann L, Bartenschlager R., Science 285(5424):110-3 (1999) and modified to introduce a luciferase reporter, as first described by Krieger et al (Krieger N, Lohmann V, and Bartenschlager R, J. Virol. 75(10):4614-4624 (2001)). cDNA encoding a humanized form of the Renilla luciferase gene and a linker sequence fused directly to the 3′-end of the luciferase gene were introduced into the replicon construct using an Asc1 restriction site located in core, directly upstream of the neomycin marker gene. The adaptive mutation at position 1179 (serine to isoleucine) was also introduced (Blight K J, Kolykhalov, A A, Rice, C M, Science 290(5498):1972-1974). A stable cell line constitutively expressing this HCV replicon construct was generated by first linearizing plasmid DNAs with ScaI. RNA transcripts were synthesized in vitro using the T7 MegaScript transcription kit (Ambion, Austin, Tex.) according to manufacturer's directions. In vitro transcripts of the cDNA were transfected into the human hepatoma cell line, HUH-7. […] Resulting cell lines were characterized for positive and negative strand RNA production and protein production over time. […]
(§1) HCV replicon luciferase assays were developed to monitor the inhibitory effects of compounds described in the disclosure on HCV genotypes 1a and 1b viral replication. HUH-7 cells, constitutively expressing the HCV replicon, were grown in Dulbecco's Modified Eagle Media (DMEM) (Gibco-BRL) containing 10% Fetal calf serum (FCS) (Sigma) and 1 mg/mL G418 (Gibco-BRL). Compounds were serially diluted 3 folds in DMSO for a twenty-point titration and subsequently transferred to sterile 384-well tissue-culture treated plates (Corning cat #3571). The plates were then seeded with 50 μL of cells at a density of 3.0×10^3 cells/well in DMEM containing 4% FCS (final DMSO concentration at 0.5%). After 3 days incubation at 37° C., cells were analyzed for Renilla Luciferase activity using the EnduRen as substrate (Promega cat #E6485). The EnduRen substrate was diluted in DMEM and then added to the plates to a final concentration of 7.5 μM. The plates were incubated for 2 hrs at 37° C. and then read immediately for 30 seconds with Viewlux Imager (PerkinElmer) using a luminescence program. To assess cytotoxicity of compounds, CC50 values were generated by multiplexing the EnduRen-containing plates with Cell Titer-Blue (Promega, cat #G8082). Cell-Titer Blue (3 μL) was added to each well and incubated for 8 hrs at 37° C. The fluorescence signal from each well was read, with an excitation wavelength at 525/10 nm and an emission wavelength of 598/10 nm, using the Viewlux Imager.
(§2) The EC50 values for compounds were calculated by using a four-parameter logistic equation: y=A+((B−A)/(1+((C/x)^D))), where A and B denotes minimal and maximal % inhibition, respectively, C is the EC50, D is the hill slope and x represents compound concentration.

HCV genotype 1a replicon = experiment: HCV replicon luciferase reporter assay, genotype 1a (LE_1a); type: cell-based; settings: Hepatitis C virus, 72 h; HUH-7 cells, genotype 1a H77 replicon, 3 days incubation, Renilla luciferase; read-out: LE_1a (EC50, range)
Text: An HCV replicon whole cell system was established as described by Lohmann V, Korner F, Koch J, Herian U, Theilmann L, Bartenschlager R., Science 285(5424):110-3 (1999) and modified to introduce a luciferase reporter, as first described by Krieger et al (Krieger N, Lohmann V, and Bartenschlager R, J. Virol. 75(10):4614-4624 (2001)). cDNA encoding a humanized form of the Renilla luciferase gene and a linker sequence fused directly to the 3′-end of the luciferase gene were introduced into the replicon construct using an Asc1 restriction site located in core, directly upstream of the neomycin marker gene. The adaptive mutation at position 1179 (serine to isoleucine) was also introduced (Blight K J, Kolykhalov, A A, Rice, C M, Science 290(5498):1972-1974). A stable cell line constitutively expressing this HCV replicon construct was generated by first linearizing plasmid DNAs with ScaI. RNA transcripts were synthesized in vitro using the T7 MegaScript transcription kit (Ambion, Austin, Tex.) according to manufacturer's directions. In vitro transcripts of the cDNA were transfected into the human hepatoma cell line, HUH-7. […] Resulting cell lines were characterized for positive and negative strand RNA production and protein production over time.
A stable HCV replicon luciferase reporter cell line representing the genotype 1a H77 strain (Yanagi M, Purcell R H, Emerson S U, et al. Transcripts from a single full-length cDNA clone of hepatitis C virus are infectious when directly transfected into the liver of a chimpanzee. Proc Natl Acad Sci USA 1997; 94(16):8738-8743) was generated as described previously for the genotype 1b(Con1) replicon luciferase cell line. The replicon construct was modified by introducing mutations were introduced into the genes encoding the NS3 helicase domain (proline replaced by leucine at position 1496) and NS5A (serine to isoleucine at position 2204) to improve replication in cell culture.
as §1, §2

Compound	EC50 (HCV genotype 1b replicon) [nM]	EC50 (HCV genotype 1a replicon) [nM]
COc1ccc2c(O[C@@H]3C[C@H]4C(=O)N[C@]5(C(=O)NS(=O)(=O)C6(C)CC6)C[C@H]5/C=C\CC[C@@H](C)C[C@@H](C)[C@H](NC(=O)OC(C)(C)C(F)(F)F)C(=O)N4C3)cc(-n3ccc(C(C)C)n3)nc2c1 [Compound 4299]	0.51 to 1	0.51 to 1
CC[C@@H]1C[C@H](C)CC/C=C\[C@@H]2C[C@@]2(C(=O)NS(=O)(=O)C2(C)CC2)NC(=O)[C@@H]2C[C@@H](Oc3ncc(N(CC)C(=O)c4ccccc4)c4cc(OC)ccc34)CN2C(=O)[C@H]1NC(=O)OC(C)(C)C(F)(F)F [Compound 4264]	1.01 to 5	1.01 to 5
C[C@@H]1CC/C=C\[C@@H]2C[C@@]2(C(=O)NS(=O)(=O)C2(C)CC2)NC(=O)[C@@H]2C[C@@H](Oc3nc4nncn4c4ccccc34)CN2C(=O)[C@@H](NC(=O)OC(C)(C)C)[C@H](C)C1 [Compound 6120, tert-butyl((2R,6S,7R,9R,13aS,14aR,16aS,Z)-2-([1,2,4]triazolo[4,3-a]quinazolin-5-yloxy)-7,9-dimethyl-14a-(((1-methylcyclopropyl)sulfonyl)carbamoyl)-5,16-dioxo-1,2,3,5,6,7,8,9,10,11,13a,14,14a,15,16,16a-hexadecahydrocyclopropa[e]pyrrolo[1,2-a][1,4]diazacyclopentadecin-6-yl)carbamate]	35 to 145	35 to 145
CC[C@@H]1C[C@H](C)CC/C=C\[C@@H]2C[C@@]2(C(=O)NS(=O)(=O)C2CC2)NC(=O)[C@@H]2C[C@@H](Oc3nc4cccnc4nc3C(F)(F)F)CN2C(=O)[C@H]1NC(=O)OC(C)(C)C [Compound 4329, tert-butyl((2R,6S,7R,9R,13aS,14aR,16aS,Z)-14a-((cyclopropylsulfonyl)carbamoyl)-7-ethyl-9-methyl-5,16-dioxo-2-((3-(trifluoromethyl)pyrido[2,3-b]pyrazin-2-yl)oxy)-1,2,3,5,6,7,8,9,10,11,13a,14,14a,15,16,16a-hexadecahydrocyclopropa[e]pyrrolo[1,2-a][1,4]diazacyclopentadecin-6-yl)carbamate]	35 to 145	35 to 145
[2H]C([2H])([2H])C1(S(=O)(=O)NC(=O)[C@@]23C[C@H]2/C=C\CC[C@@H](C)C[C@@H](CC)[C@H](NC(=O)OC(C)(C)C)C(=O)N2C[C@H](Oc4nccc5cc(OC)c(F)cc45)C[C@H]2C(=O)N3)CC1 [Compound 5507]	0.51 to 1	1.01 to 5
CC[C@@H]1C[C@H](C)CC/C=C\[C@@H]2C[C@@]2(C(=O)NS(=O)(=O)C2(C)CC2)NC(=O)[C@@H]2C[C@@H](Oc3ncc(N(C)C(=O)c4ccccc4)c4cc(OC)ccc34)CN2C(=O)[C@H]1NC(=O)OC(C)(C)C(F)(F)F [Compound 4248]	1.01 to 5	1.01 to 5
[2H]C([2H])([2H])C1(S(=O)(=O)NC(=O)[C@@]23C[C@H]2/C=C\CC[C@@H](C)C[C@@H](CC)[C@H](NC(=O)OC(C)(C)C(F)F)C(=O)N2C[C@H](Oc4nccc5cc(OC)c(F)cc45)C[C@H]2C(=O)N3)CC1 [Compound 5515]	0.51 to 1	1.01 to 5
CC[C@@H]1C[C@H](C)CC/C=C\[C@@H]2C[C@@]2(C(=O)NS(=O)(=O)C2CC2)NC(=O)[C@@H]2C[C@@H](Oc3nc4ncccc4nc3C(F)(F)F)CN2C(=O)[C@H]1NC(=O)OC(C)(C)C [Compound 4330, tert-butyl((2R,6S,7R,9R,13aS,14aR,16aS,Z)-14a-((cyclopropylsulfonyl)carbamoyl)-7-ethyl-9-methyl-5,16-dioxo-2-((2-(trifluoromethyl)pyrido[2,3-b]pyrazin-3-yl)oxy)-1,2,3,5,6,7,8,9,10,11,13a,14,14a,15,16,16a-hexadecahydrocyclopropa[e]pyrrolo[1,2-a][1,4]diazacyclopentadecin-6-yl)carbamate]	5.01 to 35	5.01 to 35
CC[C@@H]1C[C@H](C)CC/C=C\[C@@H]2C[C@@]2(C(=O)NS(=O)(=O)C2(C)CC2)NC(=O)[C@@H]2C[C@@H](Oc3ncc(-c4nc(C(C)(C)C)cs4)c4cc(OC)ccc34)CN2C(=O)[C@H]1NC(=O)OC(C)(C)C [Compound 4274, tert-butyl((2R,6S,7R,9R,13aS,14aR,16aS,Z)-2-((4-(4-(tert-butyl)thiazol-2-yl)-6-methoxyisoquinolin-1-yl)oxy)-7-ethyl-9-methyl-14a-(((1-methylcyclopropyl)sulfonyl)carbamoyl)-5,16-dioxo-1,2,3,5,6,7,8,9,10,11,13a,14,14a,15,16,16a-hexadecahydrocyclopropa[e]pyrrolo[1,2-a][1,4]diazacyclopentadecin-6-yl)carbamate]	1.01 to 5	5.01 to 35
CC[C@@H]1C[C@H](C)CC/C=C\[C@@H]2C[C@@]2(C(=O)NS(=O)(=O)C2(C)CC2)NC(=O)[C@@H]2C[C@@H](Oc3ncc(C(=O)OC)c4cc(OC)ccc34)CN2C(=O)[C@H]1NC(=O)OC(C)(C)C(F)(F)F [Compound 4287]	1.01 to 5	1.01 to 5
C[C@@H]1CC/C=C\[C@@H]2C[C@@]2(C(=O)NS(=O)(=O)C2(C)CC2)NC(=O)[C@@H]2C[C@@H](Oc3nc4nccn4c4ccccc34)CN2C(=O)[C@@H](NC(=O)OC(C)(C)C(F)(F)F)[C@H](C)C1 [Compound 6127]	5.01 to 35	5.01 to 35
CC[C@@H]1C[C@H](C)CC/C=C\[C@@H]2C[C@@]2(C(=O)NS(=O)(=O)C2(C)CC2)NC(=O)[C@@H]2C[C@@H](Oc3cc(-n4ccnc4)nc4cc(OC)ccc34)CN2C(=O)[C@H]1NC(=O)OC(C)(C)C(F)(F)F [Compound 4281]	5.01 to 35	5.01 to 35
CC[C@@H]1C[C@H](C)CC/C=C\[C@@H]2C[C@@]2(C(=O)NS(=O)(=O)C2CC2)NC(=O)[C@@H]2C[C@@H](Oc3nc4ccc(OC)cc4nc3C3CC3)CN2C(=O)[C@H]1NC(=O)OC(C)(C)C [Compound 4306]	5.01 to 35	5.01 to 35
CC[C@@H]1C[C@H](C)CC/C=C\[C@@H]2C[C@@]2(C(=O)NS(=O)(=O)C2CC2)NC(=O)[C@@H]2C[C@@H](Oc3ncc(-c4nc(C(C)(C)C)cs4)c4cc(OC)ccc34)CN2C(=O)[C@H]1NC(=O)OC(C)(C)C [Compound 4280, tert-butyl((2R,6S,7R,9R,13aS,14aR,16aS,Z)-2-((4-(4-(tert-butyl)thiazol-2-yl)-6-methoxyisoquinolin-1-yl)oxy)-14a-((cyclopropylsulfonyl)carbamoyl)-7-ethyl-9-methyl-5,16-dioxo-1,2,3,5,6,7,8,9,10,11,13a,14,14a,15,16,16a-hexadecahydrocyclopropa[e]pyrrolo[1,2-a][1,4]diazacyclopentadecin-6-yl)carbamate]	1.01 to 5	5.01 to 35
